Source: US10184118B2, “Cytochrome P450S and uses thereof” (University of Kentucky Research Foundation, priority 2001, dated 2019)
Like-named read-outs stand apart in the source and are kept apart here.

Columns and labels:
CYP71D20 = conditions: 20 to 50 μM substrate, 2 mM NADPH, 1 mg/mL microsomal protein, 30° C.
Method: Reactions were carried out in 100 mM Tris-HCl, pH 7.5, to which microsomal protein was added to a final concentration of 1 mg/mL. Reactions were initiated by the addition of 2 mM NADPH. […] After incubations for variable lengths of time at 30° C., the reactions were extracted with two volumes of ethyl acetate. […] GC analysis was routinely performed with an HP5890 GC equipped with a Hewlett-Packard HP-5 capillary column (30 m×0.25 mm, 0.25 μm phase thickness) and FID as described previously (Rising et al., J. Am. Chem. Soc. 122:1861-1866, 2000). GC-MS analysis was performed at the University of Kentucky Mass Spectrometry Facility using a Varian 3400 gas chromatograph and a Finnigan INCOS 50 quadrupole mass selective detector. The GC was equipped with a J&W DB-5 ms capillary column (15 m×0.25 mm, 0.25 μm phase thickness) and run with He as the carrier gas (10 psi.). Splitless injections were done at an injection port temperature of 280° C. The column temperature was maintained at 40° C. for 1 minute and then increased to 280° C. at 10° C. per minute. Following separation by the GC column, samples were introduced directly into the electron impact ionization source. Mass spectra were acquired at 70 eV, scanning from 40-440 Da in 1 second.

[1] = tested on: 3-hydroxylase (5-epi-aristolochene to 1-deoxycapsidiol); conditions: cited from earlier work
[2] = target: T1, 5-epi-aristolochene synthase (EAS) (Nicotiana tabacum, UniProt Q40577); assay: In vitro activity of purified recombinant EAS with inhibitors; type: biochemical
T1 construct: made in house
T1 sequence (Q40577 1-548): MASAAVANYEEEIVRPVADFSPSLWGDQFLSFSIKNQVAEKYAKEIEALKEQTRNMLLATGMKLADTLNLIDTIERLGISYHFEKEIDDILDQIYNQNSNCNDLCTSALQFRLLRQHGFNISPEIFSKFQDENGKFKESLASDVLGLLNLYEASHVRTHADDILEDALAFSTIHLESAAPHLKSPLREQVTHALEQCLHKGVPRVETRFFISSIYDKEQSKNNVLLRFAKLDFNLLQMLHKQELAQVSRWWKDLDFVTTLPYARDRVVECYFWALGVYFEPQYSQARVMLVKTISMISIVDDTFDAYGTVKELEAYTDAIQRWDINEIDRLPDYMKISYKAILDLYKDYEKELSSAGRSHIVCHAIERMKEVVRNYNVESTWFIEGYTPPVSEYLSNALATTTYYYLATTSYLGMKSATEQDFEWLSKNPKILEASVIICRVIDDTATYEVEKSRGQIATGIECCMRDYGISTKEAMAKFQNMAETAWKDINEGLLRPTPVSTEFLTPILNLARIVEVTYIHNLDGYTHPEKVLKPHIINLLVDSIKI
Method: The in vitro activity of a purified EAS preparation (Back and Chappell, J. Biol. Chem. 270:7375-7381, 1995) was also measured at the indicated inhibitor concentrations as an additional test for non-specific effects of these inhibitors (circles).

[3] = tested on: induction of EAS in elicitor-treated cell cultures; assay: Inducible sesquiterpene cyclase (EAS) activity in extracts of elicitor-treated cells; type: cell-based, Nicotiana tabacum; conditions: 12 h with cellulase
[4] = tested on: 5-epi-aristolochene hydroxylase (5EAH)
Method: (§1) The hexane solvent was removed under a gentle stream of N2 gas, and the dried residue was re-dissolved in acetone. […] Detection and quantification of capsidiol in the extracellular culture media was performed as reported previously (Chappell et al., Phytochemistry 26:2259-2260, 1987), and the amount of radioactivity incorporated into capsidiol was determined. For these determinations, samples were separated by TLC, and the zones corresponding to capsidiol were scraped from the plate for scintillation counting.
(§2) Inhibition studies were performed by the addition of the P450 inhibitors ancymidol (Coolbaugh et al., Plant Physiol. 62:571-576, 1978; Hoshino et al., Phytochemistry 38:609-613, 1995) and ketoconazole (Hoshino et al., Phytochemistry 38:609-613, 1995; Rademacher, Annu. Rev. Plant Physiol. Plant Mol. Biol. 51:501-531, 2000) directly to the cell cultures or enzyme assay mix. […] After a further 3 hour incubation period, the cells and media were collected. The amount of radioactivity incorporated into extracellular capsidiol was determined as described above. To evaluate secondary effects of these inhibitors, the level of inducible sesquiterpene cyclase activity in the collected cells was determined according to Vogeli et al. (Plant Physiol. 93:182-187, 1990), as well as in vitro assays with purified recombinant EAS (Back et al., Arch. Biochem. Biophys. 315:527-532, 1994) incubated with the indicated concentrations of ancymidol and ketoconazole.

[5] = tested on: 5-epi-aristolochene hydroxylase (5EAH); assay: In vivo 5-epi-aristolochene hydroxylase assay in elicitor-treated tobacco cell suspension cultures; conditions: Nicotiana tabacum, read-out: inhibition of apparent activity of 5EAH
Method: as §1, §2

[6] = microsomes incubated with 5-epi-aristolochene
[7] = concentrations as high as 100 μM

## C=C(C)[C@@H]1CC=C2CC[C@@H](O)[C@@H](C)[C@@]2(C)C1 [1-deoxycapsidiol]
CYP71D20
  metabolism by CYP71D20 microsomes (GC, GC-MS of products): metabolized to only one product with the same retention time as capsidiol

## C=C(C)[C@@H]1CC=C2CCC[C@@H](C)[C@@]2(C)C1 [5-epi-aristolochene]
CYP71D20
  metabolism by CYP71D20 microsomes (GC, GC-MS of products): metabolized to only one product with the same retention time as capsidiol

## COc1ccc(C(O)(c2cncnc2)C2CC2)cc1 (stereo not shown) [ancymidol]
[1]; [6]
  effect on 1-deoxycapsidiol accumulation in vitro: arrested
[2]; [7]
  effect on in vitro activity of recombinant EAS: neither the in vitro activity of recombinant EAS nor the induction of EAS in the elicitor-treated cell cultures was significantly affected
[3]; [7]
  effect on induction of EAS in elicitor-treated cell cultures: neither the in vitro activity of recombinant EAS nor the induction of EAS in the elicitor-treated cell cultures was significantly affected
[4]; 25 µM
  inhibition: ~50%
[5]
  inhibition at 75 µM: > 80%

## [C-]#[O+] [carbon monoxide]
[1]; [6]
  effect on 1-deoxycapsidiol accumulation in vitro: arrested

## CC(=O)N1CCN(c2ccc(OCC3COC(Cn4ccnc4)(c4ccc(Cl)cc4Cl)O3)cc2)CC1 (stereo not shown) [ketoconazole]
[1]
  effect on 1-deoxycapsidiol accumulation in vitro: arrested
[2]; indicated inhibitor concentrations (FIG. 3B)
  effect on in vitro activity of EAS: does not appear to affect
[3]
  concentration at which inducibility of cyclase activity in elicitor-treated cell extracts was inhibited: above 50 μM
[4]; 25 µM
  inhibition: ~50%
[4]; 100 µM
  inhibition: 95%
